Reference: ChEMBL document CHEMBL5465560, “Selectivity Literature for EUbOPEN Chemogenomic Library” (2024)
One block for each compound: values may come before it.

Legend:
[1] = biological target: Tyrosine-protein kinase Fer (Homo sapiens) (UniProt P16591); assay: Selectivity interaction (Upstate Kinase Profiler service (Millipore)) EUB0000056c FER; conditions: at 1 µM
[2] = biological target: T1, Serine/threonine-protein kinase tousled-like 1 (Homo sapiens) (UniProt Q9UKI8); assay: Selectivity interaction (KinomeScan (DiscoverX)) EUB0001049a TLK1; conditions: at 1 µM
T1 sequence (whole entry): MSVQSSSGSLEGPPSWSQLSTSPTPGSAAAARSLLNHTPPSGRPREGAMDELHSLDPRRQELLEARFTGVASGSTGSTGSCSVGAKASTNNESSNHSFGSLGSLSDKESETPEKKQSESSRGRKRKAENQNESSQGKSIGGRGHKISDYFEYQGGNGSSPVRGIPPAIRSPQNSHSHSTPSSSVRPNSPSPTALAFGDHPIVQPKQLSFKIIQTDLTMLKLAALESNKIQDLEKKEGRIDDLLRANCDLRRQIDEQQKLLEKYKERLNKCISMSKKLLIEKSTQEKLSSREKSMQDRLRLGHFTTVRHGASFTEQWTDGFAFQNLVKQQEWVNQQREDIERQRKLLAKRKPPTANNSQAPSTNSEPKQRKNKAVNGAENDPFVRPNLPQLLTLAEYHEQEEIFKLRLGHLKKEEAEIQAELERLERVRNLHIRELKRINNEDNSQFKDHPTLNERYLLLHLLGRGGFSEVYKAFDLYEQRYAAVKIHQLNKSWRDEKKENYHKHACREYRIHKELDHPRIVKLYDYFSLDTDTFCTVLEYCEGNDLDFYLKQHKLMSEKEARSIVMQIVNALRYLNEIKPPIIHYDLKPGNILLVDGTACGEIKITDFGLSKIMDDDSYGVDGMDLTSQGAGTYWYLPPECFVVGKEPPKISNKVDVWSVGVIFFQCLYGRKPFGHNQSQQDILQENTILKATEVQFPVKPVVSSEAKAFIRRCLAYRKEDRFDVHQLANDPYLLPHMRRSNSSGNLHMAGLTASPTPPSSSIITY

[3] = biological target: Cyclin-dependent kinase 5/CDK5 activator 1 (Homo sapiens) (UniProt Q00535+Q15078); assay: Selectivity interaction (Millipore kinase profiler) EUB0000124b CDK5; assay type: protein-complex assay; conditions: at 10 µM
[4] = biological target: T2, Mitogen-activated protein kinase 12 (Homo sapiens) (UniProt P53778); assay: Selectivity interaction (KinomeScan (DiscoverX)) EUB0000655a MAPK12; conditions: at 10 µM
T2 sequence (whole entry): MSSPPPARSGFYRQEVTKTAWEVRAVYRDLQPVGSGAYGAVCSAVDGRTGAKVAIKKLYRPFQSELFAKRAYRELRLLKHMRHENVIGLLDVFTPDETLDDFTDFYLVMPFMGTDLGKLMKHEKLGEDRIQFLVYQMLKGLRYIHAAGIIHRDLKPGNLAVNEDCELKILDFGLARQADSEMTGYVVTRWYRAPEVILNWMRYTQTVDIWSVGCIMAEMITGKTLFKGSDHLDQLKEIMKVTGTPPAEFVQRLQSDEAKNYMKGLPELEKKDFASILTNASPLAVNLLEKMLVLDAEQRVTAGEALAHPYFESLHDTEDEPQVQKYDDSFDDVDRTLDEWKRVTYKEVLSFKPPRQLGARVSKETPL

[5] = biological target: T3, Cyclin-dependent kinase-like 5 (Homo sapiens) (UniProt O76039); assay: Selectivity interaction (KinomeScan (DiscoverX)) EUB0001079a CDKL5; conditions: at 1 µM
T3 sequence (whole entry): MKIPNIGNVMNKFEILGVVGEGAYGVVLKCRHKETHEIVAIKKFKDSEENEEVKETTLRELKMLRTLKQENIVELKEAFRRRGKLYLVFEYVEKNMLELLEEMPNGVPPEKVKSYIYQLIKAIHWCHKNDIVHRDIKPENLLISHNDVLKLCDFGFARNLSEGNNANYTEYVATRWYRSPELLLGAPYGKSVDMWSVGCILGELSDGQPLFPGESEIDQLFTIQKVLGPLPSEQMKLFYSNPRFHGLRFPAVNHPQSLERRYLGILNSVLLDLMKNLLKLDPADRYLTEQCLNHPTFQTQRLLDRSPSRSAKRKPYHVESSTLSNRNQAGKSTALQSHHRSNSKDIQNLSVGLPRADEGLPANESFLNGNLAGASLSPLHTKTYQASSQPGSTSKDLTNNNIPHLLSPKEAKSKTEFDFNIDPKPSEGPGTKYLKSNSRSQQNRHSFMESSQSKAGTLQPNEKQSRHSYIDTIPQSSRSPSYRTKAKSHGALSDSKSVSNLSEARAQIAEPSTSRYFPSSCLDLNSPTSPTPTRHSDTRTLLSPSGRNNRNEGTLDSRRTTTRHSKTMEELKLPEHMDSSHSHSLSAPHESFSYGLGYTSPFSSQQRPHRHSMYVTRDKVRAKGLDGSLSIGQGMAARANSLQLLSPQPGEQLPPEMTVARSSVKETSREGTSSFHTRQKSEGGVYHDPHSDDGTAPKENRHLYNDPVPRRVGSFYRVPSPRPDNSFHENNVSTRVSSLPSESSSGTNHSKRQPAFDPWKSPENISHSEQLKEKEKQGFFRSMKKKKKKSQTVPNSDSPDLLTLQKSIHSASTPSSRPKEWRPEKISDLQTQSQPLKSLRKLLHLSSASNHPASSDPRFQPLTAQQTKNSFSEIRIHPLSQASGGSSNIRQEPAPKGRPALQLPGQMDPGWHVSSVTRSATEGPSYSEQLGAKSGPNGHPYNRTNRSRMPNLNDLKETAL

[6] = biological target: Serine/threonine-protein kinase 16 (Homo sapiens, UniProt O75716); assay: Selectivity interaction (KinomeScan (DiscoverX)) EUB0000229b STK16; conditions: at 10 µM
[7] = biological target: Macrophage colony-stimulating factor 1 receptor (Homo sapiens) (UniProt P07333); assay: Selectivity interaction (KinomeScan (DiscoverX)) EUB0000229b CSF1R; conditions: at 10 µM
[8] = biological target: Cyclin-dependent kinase 11B (Homo sapiens) (UniProt P21127); assay: Selectivity interaction (KinomeScan (DiscoverX)) EUB0000618a CDK11B; conditions: at 10 µM
[9] = biological target: Tyrosine-protein kinase JAK1 (Homo sapiens, UniProt P23458); assay: Selectivity interaction (KinomeScan (DiscoverX)) EUB0001619a JAK1; conditions: at 1 µM
Chain of Tyrosine-protein kinase JAK1 (P23458 whole entry): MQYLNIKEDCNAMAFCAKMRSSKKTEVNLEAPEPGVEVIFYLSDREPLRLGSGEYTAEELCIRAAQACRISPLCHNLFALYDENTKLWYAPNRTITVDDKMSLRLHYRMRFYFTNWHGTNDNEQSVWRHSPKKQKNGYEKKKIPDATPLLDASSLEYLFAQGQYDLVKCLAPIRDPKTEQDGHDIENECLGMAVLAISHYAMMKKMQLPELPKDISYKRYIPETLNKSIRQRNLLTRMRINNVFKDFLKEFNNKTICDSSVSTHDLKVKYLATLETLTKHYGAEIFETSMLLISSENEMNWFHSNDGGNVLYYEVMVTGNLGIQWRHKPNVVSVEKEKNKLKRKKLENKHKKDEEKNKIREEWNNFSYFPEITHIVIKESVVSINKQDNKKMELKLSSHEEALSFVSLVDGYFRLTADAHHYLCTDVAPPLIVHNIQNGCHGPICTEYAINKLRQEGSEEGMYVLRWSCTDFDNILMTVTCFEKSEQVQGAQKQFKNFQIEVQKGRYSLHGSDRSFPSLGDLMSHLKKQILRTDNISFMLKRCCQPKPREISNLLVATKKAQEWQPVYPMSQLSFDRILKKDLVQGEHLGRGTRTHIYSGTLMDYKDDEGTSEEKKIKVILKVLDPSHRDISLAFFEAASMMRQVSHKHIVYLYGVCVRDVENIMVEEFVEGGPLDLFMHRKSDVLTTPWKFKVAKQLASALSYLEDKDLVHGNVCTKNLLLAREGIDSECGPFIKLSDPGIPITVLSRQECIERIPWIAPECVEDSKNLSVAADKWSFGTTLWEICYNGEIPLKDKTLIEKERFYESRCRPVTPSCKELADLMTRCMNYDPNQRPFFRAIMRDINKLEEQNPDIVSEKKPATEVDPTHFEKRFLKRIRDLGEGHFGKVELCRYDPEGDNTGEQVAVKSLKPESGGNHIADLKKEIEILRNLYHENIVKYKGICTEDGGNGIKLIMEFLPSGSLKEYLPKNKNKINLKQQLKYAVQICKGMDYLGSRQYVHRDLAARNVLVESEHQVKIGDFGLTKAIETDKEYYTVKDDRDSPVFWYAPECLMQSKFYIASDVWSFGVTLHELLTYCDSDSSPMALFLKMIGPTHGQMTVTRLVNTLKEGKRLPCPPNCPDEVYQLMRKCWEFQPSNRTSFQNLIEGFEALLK

Chain of Serine/threonine-protein kinase 16 (O75716 whole entry): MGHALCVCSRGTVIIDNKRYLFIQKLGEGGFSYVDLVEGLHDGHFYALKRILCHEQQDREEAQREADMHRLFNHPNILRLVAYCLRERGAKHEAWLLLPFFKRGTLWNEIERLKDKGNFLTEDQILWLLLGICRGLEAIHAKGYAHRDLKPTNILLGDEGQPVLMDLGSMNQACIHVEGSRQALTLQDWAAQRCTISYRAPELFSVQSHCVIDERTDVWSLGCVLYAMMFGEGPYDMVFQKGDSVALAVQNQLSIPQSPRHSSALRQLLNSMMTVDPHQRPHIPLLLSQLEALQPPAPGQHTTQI
Chain of Macrophage colony-stimulating factor 1 receptor (Homo sapiens) (P07333 whole entry): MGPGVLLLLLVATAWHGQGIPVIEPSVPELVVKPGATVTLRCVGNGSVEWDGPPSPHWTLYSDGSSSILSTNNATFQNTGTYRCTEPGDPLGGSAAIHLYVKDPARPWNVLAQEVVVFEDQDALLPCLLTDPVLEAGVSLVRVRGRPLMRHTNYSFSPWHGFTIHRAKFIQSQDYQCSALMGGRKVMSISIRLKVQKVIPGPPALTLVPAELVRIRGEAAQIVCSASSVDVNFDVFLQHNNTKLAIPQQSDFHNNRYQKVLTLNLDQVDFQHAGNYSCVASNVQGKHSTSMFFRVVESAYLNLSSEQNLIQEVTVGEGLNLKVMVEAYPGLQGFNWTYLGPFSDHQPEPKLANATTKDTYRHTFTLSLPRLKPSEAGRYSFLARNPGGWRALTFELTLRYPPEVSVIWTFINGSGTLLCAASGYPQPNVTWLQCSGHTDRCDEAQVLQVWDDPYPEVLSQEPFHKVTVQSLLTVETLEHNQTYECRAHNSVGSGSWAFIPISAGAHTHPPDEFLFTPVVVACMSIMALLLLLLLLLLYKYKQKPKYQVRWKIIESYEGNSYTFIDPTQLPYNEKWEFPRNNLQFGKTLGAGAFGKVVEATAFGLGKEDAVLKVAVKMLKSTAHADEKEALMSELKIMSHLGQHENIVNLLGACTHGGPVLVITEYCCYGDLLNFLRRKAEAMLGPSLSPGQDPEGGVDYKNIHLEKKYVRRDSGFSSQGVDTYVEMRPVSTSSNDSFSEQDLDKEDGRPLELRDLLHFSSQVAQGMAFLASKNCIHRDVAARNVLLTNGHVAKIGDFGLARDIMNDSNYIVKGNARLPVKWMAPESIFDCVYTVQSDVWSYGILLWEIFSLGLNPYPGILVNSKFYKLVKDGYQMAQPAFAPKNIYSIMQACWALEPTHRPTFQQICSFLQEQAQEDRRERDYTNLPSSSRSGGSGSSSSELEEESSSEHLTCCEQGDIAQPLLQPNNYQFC
Chain of Cyclin-dependent kinase 5/CDK5 activator 1 (Homo sapiens) (Q00535 whole entry): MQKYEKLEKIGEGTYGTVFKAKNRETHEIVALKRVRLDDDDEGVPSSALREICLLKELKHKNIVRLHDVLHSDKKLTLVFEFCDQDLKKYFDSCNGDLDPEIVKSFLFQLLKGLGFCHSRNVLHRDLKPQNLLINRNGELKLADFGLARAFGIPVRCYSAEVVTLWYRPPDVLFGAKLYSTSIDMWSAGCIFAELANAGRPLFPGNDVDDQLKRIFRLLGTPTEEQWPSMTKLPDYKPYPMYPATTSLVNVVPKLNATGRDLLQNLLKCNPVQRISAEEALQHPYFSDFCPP
Chain of Cyclin-dependent kinase 5/CDK5 activator 1 (Homo sapiens) (Q15078 99-307 partner limits assumed): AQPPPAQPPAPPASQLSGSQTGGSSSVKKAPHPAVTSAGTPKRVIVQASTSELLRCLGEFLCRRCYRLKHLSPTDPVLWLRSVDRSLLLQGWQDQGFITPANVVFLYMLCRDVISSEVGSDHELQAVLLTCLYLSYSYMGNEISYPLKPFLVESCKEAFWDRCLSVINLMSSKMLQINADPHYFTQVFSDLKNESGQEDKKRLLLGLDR
Chain of Tyrosine-protein kinase Fer (Homo sapiens) (P16591 whole entry, looked up): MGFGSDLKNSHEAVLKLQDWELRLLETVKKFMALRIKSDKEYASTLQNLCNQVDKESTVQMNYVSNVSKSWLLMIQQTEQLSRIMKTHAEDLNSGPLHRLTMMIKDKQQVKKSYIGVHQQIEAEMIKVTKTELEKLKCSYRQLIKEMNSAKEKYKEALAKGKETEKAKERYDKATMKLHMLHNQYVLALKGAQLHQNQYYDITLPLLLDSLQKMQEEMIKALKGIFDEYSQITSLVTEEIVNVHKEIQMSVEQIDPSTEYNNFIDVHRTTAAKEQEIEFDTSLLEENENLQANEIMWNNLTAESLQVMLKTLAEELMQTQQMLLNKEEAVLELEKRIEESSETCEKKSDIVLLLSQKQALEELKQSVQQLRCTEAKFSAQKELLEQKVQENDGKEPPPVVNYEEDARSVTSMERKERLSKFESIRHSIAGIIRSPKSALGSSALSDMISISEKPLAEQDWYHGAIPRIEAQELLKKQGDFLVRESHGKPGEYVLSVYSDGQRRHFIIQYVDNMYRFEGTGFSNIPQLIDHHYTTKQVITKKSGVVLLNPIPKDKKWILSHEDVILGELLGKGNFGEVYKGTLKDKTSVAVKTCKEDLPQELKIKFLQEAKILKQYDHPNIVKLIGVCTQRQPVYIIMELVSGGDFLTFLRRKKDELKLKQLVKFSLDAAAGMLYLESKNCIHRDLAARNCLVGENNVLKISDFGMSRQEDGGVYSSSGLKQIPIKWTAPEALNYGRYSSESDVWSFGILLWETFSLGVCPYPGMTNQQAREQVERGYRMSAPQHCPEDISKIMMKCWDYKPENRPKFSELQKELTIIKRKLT
Chain of Cyclin-dependent kinase 11B (Homo sapiens) (P21127 whole entry): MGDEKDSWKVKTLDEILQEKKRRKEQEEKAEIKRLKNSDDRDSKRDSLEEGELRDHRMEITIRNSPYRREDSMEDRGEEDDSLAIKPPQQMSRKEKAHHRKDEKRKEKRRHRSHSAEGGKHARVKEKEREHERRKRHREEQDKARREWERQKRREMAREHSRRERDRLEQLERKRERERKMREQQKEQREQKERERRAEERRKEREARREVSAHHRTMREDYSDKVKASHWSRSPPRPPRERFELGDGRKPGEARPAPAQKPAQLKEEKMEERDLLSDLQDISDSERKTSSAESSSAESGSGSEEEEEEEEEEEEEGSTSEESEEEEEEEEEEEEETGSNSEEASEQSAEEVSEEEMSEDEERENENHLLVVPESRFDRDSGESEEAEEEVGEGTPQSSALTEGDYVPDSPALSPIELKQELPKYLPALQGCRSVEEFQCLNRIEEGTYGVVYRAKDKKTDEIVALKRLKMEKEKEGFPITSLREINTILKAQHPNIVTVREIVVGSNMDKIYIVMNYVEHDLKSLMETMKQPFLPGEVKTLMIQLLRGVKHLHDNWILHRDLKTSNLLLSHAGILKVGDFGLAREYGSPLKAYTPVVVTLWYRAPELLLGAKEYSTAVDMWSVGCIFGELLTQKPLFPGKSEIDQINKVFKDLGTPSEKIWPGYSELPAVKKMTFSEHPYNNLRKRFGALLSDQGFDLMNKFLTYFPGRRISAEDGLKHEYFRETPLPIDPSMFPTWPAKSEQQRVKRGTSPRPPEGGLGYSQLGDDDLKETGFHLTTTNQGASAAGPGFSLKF

% of inhibition [1]: 11%
Structure (SMILES): Cc1ccc(-c2ccc3c(ccc4sc5c(c43)NC[C@@H](C)NC5=O)n2)cn1

Structure (SMILES): COc1cc(Nc2nc(C)cc(-c3cnn4nc(OC)ccc34)n2)cc(C(F)(F)F)c1
% of control [2]: 100%

% of control [3]: 102%
Structure (SMILES): CC(=O)Nc1cccc(-n2c(=O)n(C3CC3)c(=O)c3c(Nc4ccc(I)cc4F)n(C)c(=O)c(C)c32)c1

Structure (SMILES): CN(C)CCOc1ccc(-c2nc(-c3ccncc3)c(-c3ccc4c(c3)CC/C4=N\O)[nH]2)cc1
% of control [4]: 77%

Structure (SMILES): Nc1cnc(N2CCc3cc(S(=O)(=O)Nc4c(F)cc(Cl)cc4F)cc(N4CCCC4=O)c32)nc1 [TP-020n]
% of control [5]: 88%

Structure (SMILES): COc1cc(N(C)c2ccnc3ccc(C(F)(F)F)cc23)cc(OC)c1OC
% binding [6]: 90%
% binding [7]: 96%

Structure (SMILES): O[C@H]1CC[C@H](Nc2ncc3nc(Nc4c(F)cc(F)cc4F)n([C@H]4CCOC4)c3n2)CC1
% of control [8]: 91%

Structure (SMILES): N#Cc1cccc(-c2c[nH]c3ncnc(N4CCOCC4)c23)c1
% of control [9]: 100%
